For one substance, permeability and pH of media results are on record in EP2987482A1 (Santa Farma Ilaç Sanayi A.S., priority 2014, dated 2016).

The conditions of series [1]: cited from earlier work.
Series [2] in a line: pH of media after dissolving the composition in water. It counts as physicochemical. The following applies: magnetic stirrer for 3 minutes.

Take “4-[3,5-bis(2-hydroxyphenyl)-[1,2,4]triazol-1-yl]benzoic acid [deferasirox]”: the permeability result in series [1] is reported as “good permeability”. For the same substance, the pH of media in series [2] (composition with 500 mg deferasirox and 40 mg sodium carbonate) stood at 8.13; in series [2] (composition with 500 mg deferasirox and 60 mg sodium carbonate), 8.33; in series [2] (composition with 500 mg deferasirox and 80 mg sodium carbonate) it was 8.44; in series [2] (composition with 500 mg deferasirox and 100 mg sodium carbonate), 8.65; in series [2] (composition with 500 mg deferasirox and 120 mg sodium carbonate), 8.77; in series [2] (composition with 500 mg deferasirox and 140 mg sodium carbonate), 8.84. For the same substance, the pH of media in series [2] (composition with 500 mg deferasirox and 160 mg sodium carbonate) is given as 8.91.
